We go through eight substances from patent publication US20240342238A1, “PEPTIDE HAVING OBESITY AND MUSCLE LOSS INHIBITORY ACTIVITIES, AND USE THEREOF” (Korea University Research and Business Foundation, priority 2021, published 2024).

One experiment concerns FoxO1. Nature of the experiment: FoxO1 phosphorylation and total FoxO1 in L6 skeletal muscle cells (Western blot). It is filed as cell-based. Particulars: 100 nM, 1 hour. The protocol:
(§1) The effect of the peptide of the present invention on muscles was confirmed. After culturing L6 skeletal muscle cells in a 6-well plate, the cells were starved with 0.5% FBS. Afterward, 100 nM of each peptide was treated for 1 hour, and proteins were collected and subjected to Western blot.

The next experiment has as its system S6. Nature of the experiment: S6 phosphorylation in L6 skeletal muscle cells (Western blot). It is filed as cell-based. Particulars: 100 nM, 1 hour; for phosphorylation of S6 (in words): FIG. 9. The protocol:
as §1

In experiment [1] the test system is adipocyte protein 2 (AP2). Nature of the experiment: AP2 gene expression in muscle tissue of db/db mouse model (RT-PCR). It is filed as in vivo. Particulars: muscle tissue of db/db mice, 2.5 mg/kg i.p. daily, 8 weeks. The protocol: (§2) The obesity-improving effect of a peptide was confirmed by inducing body weight gain in an animal model in which diabetes was induced due to the defect in a leptin receptor. Specifically, C57BLKS/J-db/db 5-week-old male mice were purchased from the Central Laboratory Animal Inc., provided with a normal diet for one week, and used after an acclimation period. The breeding environment was maintained at 18 to 24° C. and a humidity of 50 to 60%, and during the acclimation period and the experimental period, free feeding was implemented with free access to normal feed and water.
(§3) The mice that underwent the acclimation period were divided into a control and a peptide-treated group. The control group was administered PBS, and the peptide-treated group was administered Peptide No. 7 or 8 (2.5 mg/kg) intraperitoneally every day for a total of 8 weeks.
(§4) As a result of RT-PCR, it was confirmed that, by the treatment of Peptide No. 7 or 8, the expression of adipocyte protein 2 (AP2) and CCAAT enhancer binding protein α (C/EBPα) genes, which are involved in lipid accumulation, was reduced, and the expression of a peroxisome proliferator-activated receptor α (PPARα) gene, involved in fatty acid oxidation, was increased. […]

The subject of experiment [2] is Muscle RING Finger-1 (Murf-1). Nature of the experiment: Murf-1 gene expression in muscle tissue of db/db mouse model (RT-PCR). The format is in vivo. To be noted: muscle tissue of db/db mice, 2.5 mg/kg i.p. daily, 8 weeks. The protocol: as §2, §3, §4
Experiment [3] has as its system peroxisome proliferator-activated receptor α (PPARα). Nature of the experiment: PPARα gene expression in muscle tissue of db/db mouse model (RT-PCR). To be noted: muscle tissue of db/db mice, 2.5 mg/kg i.p. daily, 8 weeks. It is filed as in vivo. How it is done: as §2, §3, §4
For experiment [4], the system named is CCAAT enhancer binding protein α (C/EBPα). Briefly: C/EBPα gene expression in muscle tissue of db/db mouse model (RT-PCR). It is filed as in vivo. To be noted: muscle tissue of db/db mice, 2.5 mg/kg i.p. daily, 8 weeks. The protocol:
as §2, §3, §4

For YFR (listed as Homo sapiens) [No. 1], in the experiment with FoxO1, the “expression level of total FoxO1” value is listed as “decreased” and the “phosphorylation of FoxO1” value was “increased”. Also, the “increase of phosphorylation of the S6 protein” value (shortened to “increase”) in the experiment with S6 was determined as 188%.
With “REAGGAFGKR (listed as Homo sapiens) [No. 3]”, the “phosphorylation of S6 (in words)” value in the experiment with S6 is given as “increased”.
“VDRGAGSIREAGGAFGKREQAEEERYFR (listed as Homo sapiens) [No. 8]”: the “increase” value in the experiment with S6 worked out at 414%. Moreover, the “change in AP2 gene expression” value in experiment [1] is −54.7%. Also, in experiment [2], the “change in Murf-1 gene expression” value is on record as −36.0%. In addition, the “change in PPARα gene expression” value in experiment [3] is “+12.9%”. In addition, the “change in C/EBPα gene expression” value in experiment [4] is −45.5%.
As for “AGSIREAGGAFGKREQAEEERYFR (listed as Homo sapiens) [No. 7]”, in the experiment on S6, the “phosphorylation of S6 (in words)” value is “increased”. In experiment [1], the “change in AP2 gene expression” value was −52.5%. The “change in Murf-1 gene expression” value in experiment [2] is listed as −90.1%. The “change in PPARα gene expression” value in experiment [3] is given as “+94.1%”. Further, the “change in C/EBPα gene expression” value in experiment [4] is recorded as −18.6%.
With “EQAEEER (listed as Homo sapiens) [No. 2]”, the “increase” value with S6 was 365%.
As to “YFRAQSREQLAALKKHH (listed as Homo sapiens) [No. 6]”, the “phosphorylation of S6 (in words)” value in the experiment on S6 is listed as “increased”.
Consider “EQAEEERYFR (listed as Homo sapiens) [No. 4]”, for which, in the experiment with S6, the “increase” value was found to be 224%.
In the case of “AQSREQLAALKK (listed as Homo sapiens) [No. 5]”, in the experiment on S6, the “increase” value is reported as 494%.
